{
  "source": "patent US20050054103A1",
  "about": "“Expansion of renewable stem cell populations using modulators of PI 3-kinase” (priority 2003, published 2005)",
  "test_system": "CD34+ cells",
  "assay": "Ex-vivo expansion of CD34+ cell enriched cultures with RAR antagonist, cell counts and FACS surface antigen analysis",
  "assay_type": "cell-based, human",
  "details": "for No. of cells (× 10^4): 2 weeks after seeding; for No. of CD34+ cells: RAR antagonist 10^−5 M for one week only",
  "description": "Human blood cells were obtained from umbilical cord blood from female patients following full-term, normal delivery (informed consent was obtained). Samples were collected and processed within 12 hours postpartum. Blood was mixed with 3% Gelatin (Sigma, St. Louis, Mo.), sedimented for 30 minutes to remove most red blood cells. […] The mononuclear cell fraction in the interface layer was collected, washed three times and resuspended in phosphate-buffered saline (PBS) solution (Biological Industries) containing 0.5% bovine serum albumin (BSA, Fraction V; Sigma).\nTo purify CD34^+ mononuclear cells, the fraction was subjected to two cycles of immuno-magnetic separation using the MiniMACS® or Clinimax® CD34 Progenitor Cell Isolation Kit (Miltenyi Biotec, Auburn, Calif.) as per manufacturer's recommendations.\nCD34^+ expressing purified cells above were cultured in 24-well Costar Cell Culture Clusters (Coming Inc., Corning, N.Y.) or culture bags (American Fluoroseal Corp), at a concentration of 10^4 cells/ml in alpha medium (Biological Industries, Beit Haemek, Israel) supplemented with 10% fetal bovine serum (FBS, Biological Industries). The following human recombinant cytokines were added: Thrombopoietin (TPO), interleukin-6 (IL-6), FLT-3 ligand and stem cell factor (SCF), all at final concentrations of 50 ng/ml each, though occasionally IL-3, at a concentration of 20 ng/ml, was added either together or instead of SCF. For non-hematopoietic cell differentiation, FGF, EGF, NGF, VEGF, LIF or Hepatocyte growth factor (HGF) were used to supplement the growth medium, either alone or in various combinations. All cytokines used were purchased from Perpo Tech, Inc. (Rocky Hill, N.J.). The cultures were incubated at 37° C., 5% CO2, in a humidified atmosphere.\nAt weekly intervals, cell cultures were toped and semi-depopulated and were supplemented with fresh medium, serum and cytokines or supplemented with fresh growth medium, alone. At predetermined time points, cells were harvested, stained with trypan blue, counted, and cell morphology was determined via the use of cytospin (Shandon, UK)-prepared smears stained with May-Grunwald/Giemsa solutions.\nCD34^+ purified and whole MNC cultures were prepared and maintained as described above. […] The antagonist was added for a predetermined, limited period, for up to three weeks or continuously during the entire culture period.\nCells were harvested, washed with a PBS solution containing 1% bovine sera albumin (BSA) and 0.1% sodium azide (Sigma), and stained at 4° C. for 60 minutes with fluorescein isothiocyanate or phycoerythrin-conjugated antibodies (all from Immunoquality Products, the Netherlands). The cells were then washed with the same buffer and analyzed by FACS caliber or Facstarplus flow cytometers. Cells were passed at a rate of 1000 cells/second, using saline as the sheath fluid. A 488 nm argon laser beam served as the light source for excitation. Emission of ten thousand cells was measured using logarithmic amplification, and analyzed using CellQuest software. Negative control staining of cells was accomplished with mouse IgG-PE (Dako A/S Glostrup, Denmark) and mouse IgG-FITC (BD Biosciences, Erembodegem, Belgium).\nCD34 surface expression on short and long-term cultures initiated either with purified CD34^+ cells or the entire MNC fraction was determined as follows: CD34^+ cells were positively reselected (Miltenyi kit) and counted. Purity was confirmed by subsequent FACS and cell morphology analysis.\nReselected CD34^+ cell subsets were stained for the following combination of antigens: CD34PE/CD38FITC and CD34PE/38, 33, 14, 15, 3, 4, 61, 19 (Lin) FITC. The fraction positive for CD34 and negative for CD38 was defined as CD34^+CD38^−. The fraction positive for CD34 and negative for LIN was defined as CD34^+Lin^− cell fraction.\nFACS analysis results are given as percentage values of cells. Absolute numbers of subsets are calculated from the absolute number of CD34^+ cells.",
  "key": {"[1]": {"details": "RAR antagonist 10^−5 M, 2 weeks"}, "[2]": {"details": "RAR antagonist 10^−6 M, 2 weeks"}, "[3]": {"details": "reselected CD34+ cells after two weeks in culture"}},
  "data": [
    {"smiles": "CCc1ccc(C2=CC(C)(C)Sc3ccc(C#Cc4ccc(C(=O)O)cc4)cc32)cc1", "note": "[AGN 194310]", "values": [
      {"measurement": "cell proliferation enabled until (post initial seeding)", "setting": "AGN194310 10^−7 M", "value": "≤ 11", "unit": "weeks"},
      {"measurement": "expression of the CD38 antigen", "setting": "FACS, 2 weeks", "value": "completely abolished"},
      {"measurement": "No. of cells (× 10^4)", "setting": "RAR antagonist 10^−5 M + 4 cytokines", "value": "42 × 10^4"},
      {"measurement": "No. of CD34+ cells", "setting": "week 13", "value": 10322},
      {"measurement": "No. of CD34+ cells", "setting": "week 20", "value": 0},
      {"measurement": "% 34^+/38^−cells", "setting": "[1]", "value": 17.14, "unit": "%"},
      {"measurement": "% 34^+/Lin^−cells", "setting": "[1]", "value": 15.18, "unit": "%"},
      {"measurement": "% 34^+cells", "setting": "[1]", "value": 18.94, "unit": "%"},
      {"measurement": "No. of cells (× 10^4)", "setting": "RAR antagonist 10^−6 M + 4 cytokines", "value": "52 × 10^4"},
      {"measurement": "% 34^+/38^−cells", "setting": "[2]", "value": 17.16, "unit": "%"},
      {"measurement": "% 34^+/Lin^−cells", "setting": "[2]", "value": 11.91, "unit": "%"},
      {"measurement": "% 34^+cells", "setting": "[2]", "value": 19.59, "unit": "%"},
      {"measurement": "increase in CD34+ expression between week three to eleven", "setting": "RAR antagonist first three weeks only, then eight weeks without", "value": 92, "unit": "fold"},
      {"measurement": "CD34^+Lin^− expansion", "setting": "after two weeks in culture, CD34+ re-selected fraction", "value": 530, "unit": "fold"},
      {"measurement": "increase in CD34^+CD38^− surface expression", "setting": "[3]", "value": 1000, "unit": "fold"},
      {"measurement": "increase in CD34^+Lin^− surface expression", "setting": "[3]", "value": 500, "unit": "fold"},
      {"measurement": "expansion of CD34+ compartment since the initiation of the cultures", "setting": "week 11, RAR antagonist first three weeks only", "value": 1621, "unit": "fold"},
      {"measurement": "increase in CD34^+Lin^− expression", "setting": "week eleven, 9 weeks after termination of antagonist treatment", "value": "16,700 fold"}
    ]}
  ]
}
